The source of these data is patent publication US10391095B2, “DNA-PK inhibitors” (Vertex Pharmaceuticals Incorporated, priority 2012, dated 2019).

The assay deals with DNA-PK (Homo sapiens, UniProt P78527). Put plainly: DNA-PK inhibition assay (radiometric, 33P-ATP). The class given is biochemical. Particulars: 100 μM ATP, competitive tight-binding fit. The method, then: Compounds were screened for their ability to inhibit DNA-PK kinase using a standard radiometric assay. Briefly, in this kinase assay the transfer of the terminal ^33P-phosphate in ^33P-ATP to a peptide substrate is interrogated. The assay was carried out in 384-well plates to a final volume of 50 μL per well containing approximately 6 nM DNA-PK, 50 mM HEPES (pH 7.5), 10 mM MgCl2, 25 mM NaCl, 0.01% BSA, 1 mM DTT, 10 μg/mL sheared double-stranded DNA (obtained from Sigma), 0.8 mg/mL DNA-PK peptide ([…] obtained from American Peptide), and 100 μM ATP. Accordingly, compounds of the invention were dissolved in DMSO to make 10 mM initial stock solutions. Serial dilutions in DMSO were then made to obtain the final solutions for the assay. A 0.75 μL aliquot of DMSO or inhibitor in DMSO was added to each well, followed by the addition of ATP substrate solution containing ^33P-ATP (obtained from Perkin Elmer). The reaction was started by the addition of DNA-PK, peptide and ds-DNA. After 45 min, the reaction was quenched with 25 μL of 5% phosphoric acid. The reaction mixture was transferred to MultiScreen HTS 384-well PH plates (obtained from Millipore), allowed to bind for one hour, and washed three times with 1% phosphoric acid. Following the addition of 50 μL of Ultima Gold™ high efficiency scintillant (obtained from Perkin Elmer), the samples were counted in a Packard TopCount NXT Microplate Scintillation and Luminescence Counter (Packard BioScience). The Ki values were calculated using Microsoft Excel Solver macros to fit the data to the kinetic model for competitive tight-binding inhibition.

pKi: −log10 of the molar value. Bounds are passed on as bounds.

As a reminder, the pKi is the negative decadic logarithm of the Ki, by convention in mol/L. Read a low pKi as a high Ki. Take `CNC(=O)c1ccnc2c([C@H](C)CNc3cc(-c4ccc(F)nc4)ncn3)cccc12` [Compound 603]: the pKi was greater than 7.52.
Then `CNC(=O)c1ccnc2c([C@H](C)CNc3cc(-c4cnc(N5CCN(CC(F)F)CC5)nc4)ncn3)cccc12` [Compound 757], with greater than 7.52; and `CNC(=O)c1ccnc2c([C@H](C)CNc3cc(-c4cncc(OC)c4)ncn3)cccc12` [Compound 878], with greater than 7.52; and `COc1ccccc1CCNc1cc(-c2ccc3ncccc3c2)ncn1` [Compound 1], with greater than 7.52.
Then `CNC(=O)c1ccnc2c([C@H](C)CNc3cc(-c4ccc(NCC5CC5)nc4)ncn3)cccc12` [Compound 644], with greater than 7.52; and `CNC(=O)c1ccnc2c([C@H](C)CNc3cc(-c4ccc(C(C)O)nc4)ncn3)cccc12` (stereo partly drawn) [Compound 730], with greater than 7.52; and `COc1cc(C=O)ccc1C(C)CNc1cc(-c2ccc(C)nc2)ncn1` (stereo not drawn) [Compound 378], with greater than 7.52.
Then `CNC(=O)c1ccnc2c([C@H](C)CNc3cc(-c4ccc(N5CCC6(COC6)C5)nc4)ncn3)cccc12` [Compound 735], with greater than 7.52; and `CNC(=O)c1c(NC)cnc2c([C@H](C)CNc3cc(-c4ccc(C)nc4)ncn3)cccc12` [Compound 764], with greater than 7.52; and `CNC(=O)c1ccnc2c([C@H](C)CNc3cc(-c4ccc(C(=O)O)s4)ncn3)cccc12` [Compound 775], with greater than 7.52.
Regarding `CNCCCNc1ccc(-c2cc(NC[C@@H](C)c3ccc(C(=O)NC)cc3OC)ncn2)cn1` [Compound 356], the pKi is greater than 7.52.
The figure for `CNC(=O)c1ccnc2c([C@H](C)CNc3cc(-c4cc(F)c(OC(C)C)c(F)c4)ncn3)cccc12` [Compound 872] is greater than 7.52; for `CNC(=O)c1ccnc2c([C@H](C)CNc3cc(-n4ccnc4)ncn3)cccc12` [Compound 743] it is greater than 7.52.
The figure for `C[C@H](CNc1cc(-c2ccc3ncccc3c2)ncn1)c1ccnc2cccnc12` [Compound 501] is greater than 7.52.
In the case of `COc1ccccc1CCNc1cc(-c2cnc3[nH]ccc3c2)ncn1` [Compound 8], the pKi is greater than 7.52.
The figure for `CNC(=O)c1ccnc2c([C@H](C)CNc3cc(-c4ccc(NCCn5cccc5)nc4)ncn3)cccc12` [Compound 702] is greater than 7.52; for `Cc1ccc(-c2cc(NCC(C)c3cccc4c3OC(C)(C)C4)ncn2)cn1` (stereo not drawn) [Compound 85] it is greater than 7.52.
The figure for `CCN(C)c1ccc(-c2cc(NC[C@@H](C)c3ccc(C(=O)NC)cc3OC)ncn2)cn1` [Compound 362] is greater than 7.52.
The figure for `CNC(=O)c1ccnc2c([C@H](C)CNc3cc(-c4ccc5c(c4)CC(=O)N5C)ncn3)cccc12` [Compound 825] is greater than 7.52.
For `COc1ccccc1[C@H](C)CNc1cc(-c2ccc(F)nc2)ncn1` [Compound 96], the pKi is greater than 7.52.
The figure for `CNC(=O)c1ccnc2c([C@H](C)CNc3cc(-c4cncc(S(C)(=O)=O)c4)ncn3)cccc12` [Compound 877] is greater than 7.52.
In turn, `CC(CNc1cc(-c2cnc3c(cnn3C3CCN(C)CC3)c2)ncn1)c1ccccc1OC1CC1` (stereo not drawn) [Compound 145] gave a negative-log Ki (pKi) greater than 7.52.
Then `COc1ccccc1[C@H](C)CNc1cc(-c2cnc(C)nc2)ncn1` [Compound 138], with greater than 7.52; and `CNC(=O)c1ccnc2c([C@H](C)CNc3cc(-c4cnc(C(C)(C)OC)nc4)ncn3)cccc12` [Compound 928], with greater than 7.52.
With `CNC(=O)c1ccc(C(C)CNc2cc(-c3cnc4c(cnn4C)c3)ncn2)c(OC)c1` (stereo not drawn) [Compound 188], the pKi is greater than 7.52.
The figure for `CNC(=O)c1ccnc2c([C@H](C)CNc3cc(-c4ccc(NCCC(C)O)nc4)ncn3)cccc12` (stereo partly drawn) [Compound 709] is greater than 7.52; for `CNC(=O)c1c(N2CCOCC2)cnc2c([C@H](C)CNc3cc(-c4ccc(C)nc4)ncn3)cccc12` [Compound 767] it is greater than 7.52; for `CNC(=O)c1ccnc2c([C@H](C)CNc3cc(-c4cnc(C5CCC5)nc4)ncn3)cccc12` [Compound 846] it is greater than 7.52.
The figure for `CNC(=O)c1ccnc2c([C@H](C)CNc3cc(-c4cnc(N5CCOCC5)c(C)c4)ncn3)cccc12` [Compound 880] is greater than 7.52; for `CNC(=O)c1ccnc2c([C@H](C)CNc3cc(-c4ccnc(N)c4)ncn3)cccc12` [Compound 876] it is greater than 7.52.
Then `Cc1ccc(-c2cc(NCC(C)c3ccncc3OC3CC3)ncn2)cn1` (stereo not drawn) [Compound 287], with greater than 7.52.
`C[C@H](CNc1cc(-c2ccc3ncccc3c2)ncn1)c1ccnc2c1OCC2` [Compound 480] showed a pKi greater than 7.52.
The figure for `CNC(=O)c1ccnc2c([C@H](C)CNc3cc(-c4ccc5c(c4)CCN(C(C)=O)C5)ncn3)cccc12` [Compound 803] is greater than 7.52; for `CCOc1ncc(-c2cc(NC[C@@H](C)c3ccc(F)c4c(C(=O)NC)ccnc34)ncn2)cn1` [Compound 652] it is greater than 7.52.
The figure for `C[C@H](CNc1cc(-c2cnc3c(ccn3C3COC3)c2)ncn1)c1ccnc2c1OCCO2` [Compound 536] is greater than 7.52; for `CC(=O)N1CCOc2c([C@H](C)CNc3cc(-c4cnc(C)nc4)ncn3)cccc21` [Compound 627] it is greater than 7.52.
The figure for `CNC(=O)c1ccnc2c([C@H](C)CNc3cc(-c4cnc(OC(C)C)nc4)ncn3)ccc(F)c12` [Compound 983] is greater than 7.52; for `CNC(=O)c1ccnc2c([C@H](C)CNc3cc(-c4cnc(C5CC5)nc4)ncn3)cccc12` [Compound 790] it is greater than 7.52.
`CNC(=O)c1ccc([C@H](C)CNc2cc(-c3ccc4c(cnn4CC4CC4)c3)ncn2)c(OC)c1` [Compound 294]: the pKi is greater than 7.52.
The figure for `CCN1CCCC1CNc1ccc(-c2cc(NC[C@@H](C)c3cccc4c(C(=O)NC)ccnc34)ncn2)cn1` (single isomer, unassigned) [Compound 704] is greater than 7.52; for `CNC(=O)c1ccnc2c([C@H](C)CNc3cc(-c4cnc(F)c(C)c4)ncn3)cccc12` [Compound 951] it is greater than 7.52; for `CCn1ccc2cc(-c3cc(NCCc4ccccc4OC)ncn3)cnc21` [Compound 35] it is greater than 7.52.
Then `CNC(=O)c1c(C#N)cnc2c([C@H](C)CNc3cc(-c4ccc(C)nc4)ncn3)cccc12` [Compound 766], with greater than 7.52; and `CNC(=O)c1ccc([C@H](C)CNc2cc(-c3ccc(NCCN(C)C)nc3)ncn2)c(OC)c1` [Compound 369], with greater than 7.52.
With `COc1ccccc1[C@H](C)CNc1cc(-c2ccc(Nc3nc[nH]n3)nc2)ncn1` [Compound 198], the pKi was greater than 7.52.
Then `CNC(=O)c1ccnc2c([C@H](C)CNc3cc(-c4ccc(Nc5cnn(CCOC)c5)nc4)ncn3)cccc12` [Compound 737], with greater than 7.52.
The figure for `CNC(=O)c1ccc(C(C)CNc2cc(-c3ccc(OCCSC)nc3)ncn2)c(OC)c1` (stereo not drawn) [Compound 323] is greater than 7.52.
The figure for `COc1sccc1C(C)CNc1cc(-c2ccc(N3CCN(C)CC3)nc2)ncn1` (stereo not drawn) [Compound 265] is greater than 7.52; for `CCNc1ccc(-c2cc(NC[C@@H](C)c3ccnc4cc(C)oc34)ncn2)cn1` [Compound 573] it is greater than 7.52; for `CNC(=O)c1ccnc2c([C@H](C)CNc3cc(N4CNC(=O)C4)ncn3)cccc12` [Compound 797] it is greater than 7.52.
As to `CNC(=O)c1ccnc2c([C@H](C)CNc3cc(-c4ccc(N(C)C5CCN(C)CC5)nc4)ncn3)cccc12` [Compound 634], the pKi is greater than 7.52.
